In patent publication US20220242846A1, “ISOINDOLINONE COMPOUNDS” (Monte Rosa Therapeutics AG, priority 2019, published 2022):
pEC50, pIC50: −log10 of the molar value.

biological target: T1, Full length wild-type cereblon CRBN (Homo sapiens, UniProt Q96SW2); assay: Fluorescence polarization (FP) assay indicating cereblon binding; conditions: CRBN 80.0 nM, fluorescent probe 5 nM, FP measured after 12 hours; read-out: rFP IC50
T1 construct: Full length wild-type cereblon CRBN (80.0 nM, 10 μL) was incubated in assay buffer
T1 sequence (Q96SW2 whole entry): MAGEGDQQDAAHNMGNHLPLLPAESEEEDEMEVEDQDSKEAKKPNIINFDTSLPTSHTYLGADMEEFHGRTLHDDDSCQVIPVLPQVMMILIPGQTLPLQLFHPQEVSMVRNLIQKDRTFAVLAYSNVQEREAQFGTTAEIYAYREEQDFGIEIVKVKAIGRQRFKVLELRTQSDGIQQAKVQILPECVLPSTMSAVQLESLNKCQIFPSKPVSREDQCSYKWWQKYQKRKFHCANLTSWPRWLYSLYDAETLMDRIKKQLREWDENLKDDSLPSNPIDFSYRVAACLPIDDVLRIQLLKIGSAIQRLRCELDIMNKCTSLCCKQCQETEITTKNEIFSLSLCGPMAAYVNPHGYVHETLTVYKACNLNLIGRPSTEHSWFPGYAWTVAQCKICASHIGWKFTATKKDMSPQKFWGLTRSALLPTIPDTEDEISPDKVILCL
Description: Protocol for Fluorescent Polarization Assay
Compound activity was monitored in a fluorescence polarization (FP) homogeneous assay using 1-[5-({2-[2-(2-{[2-(2,6-dioxopiperidin-3-yl)-1,3-dioxo-2,3-dihydro-1H-isoindol-4-yl]oxy}acetamido)ethoxy]ethyl}carbamoyl)pentyl]-3,3-dimethyl-2-[(1E,3E)-5-[(2E)-1,3,3-trimethyl-5-sulfo-2,3-dihydro-1H-indol-2-ylidene]penta-1,3-dien-1-yl]-3H-indol-1-ium-5-sulfonate as a fluorescent probe. Unless otherwise stated, all reagents were purchased from Sigma Aldrich. Enzymatic reactions were conducted in Perkin-Elmer Black 384 well ProxiPlate Plus (catalogue no. 6008269) in 10 μL total volume. Full length wild-type cereblon CRBN (80.0 nM, 10 μL) was incubated in assay buffer containing 20 mM HEPES (pH 8.0), […], 0.5 mM TCEP and 0.05% Tween 20 in the presence or absence of compound (300 nL). Inhibitors were stored as 10 mM DMSO stocks in an inert environment (low humidity, dark, low oxygen, room temperature) using the Storage Pod System. Compounds and DMSO were dispensed using the Echo E5XX (Labcyte Inc. USA) to give concentrations from 300 to 0.937 or 3000 to 9.3 nM in a 12 data point curve. […] Following incubation at room temperature for […], the assay was initiated by dispensing the probe to a final concentration of 5 nM (2.5 nL of a 20 μM stock) using the Echo E5XX. FP was measured after a period of 12 hours using a Pherastar plate reader (BMG Labtech, Germany) exciting at 590 nm and measuring the amount of parallel and perpendicular light at 675 nm. The FP signal was subsequently normalized to the no-compound control (i.e., DMSO). Analysis and IC50 values were derived using Dotmatics (Dotmatics UK) software.

**Q.** `CCc1ccc(NC(=O)NCc2ccc3c(c2)C(=O)N(C2CCC(=O)NC2=O)C3)cc1` (stereo not drawn) [Compound 18] was tested. Which pIC50 did it give?
**A.** Its pIC50 is 6.26.

**Q.** With `O=C1CCC(N2Cc3ccc(CNC(=O)Nc4cccc(C(F)(F)F)c4)cc3C2=O)C(=O)N1` (stereo not drawn) [Compound 47] as the molecule, how does the pIC50 read?
**A.** Its pIC50 is 5.97.

**Q.** How did the pIC50 turn out when `CC(C)(C)c1ccccc1NC(=O)NCc1ccc2c(c1)C(=O)N(C1CCC(=O)NC1=O)C2` (stereo not drawn) [Compound 11] was run?
**A.** The pIC50 was 5.91.

**Q.** `COc1ccc(CNC(=O)NCc2ccc3c(c2)C(=O)N(C2CCC(=O)NC2=O)C3)cc1` (stereo not drawn) [Compound 52] was tested. Which pIC50 did it give?
**A.** Its pIC50 is 6.32.

**Q.** `Cc1ccc(NC(=O)NCc2ccc3c(c2)C(=O)N(C2CCC(=O)NC2=O)C3)cc1` (stereo not drawn) [Compound 21] was tested. Which pIC50 did it give?
**A.** The pIC50 was 6.21.

system: Human mammary epithelial cells (HMEC) engineered to express c-myc tagged with EGFP; assay: 3D spheroid assay, myc-HMEC (CellTiterGlo3D viability); type: cell-based; conditions: Homo sapiens, HMEC, 120 h, 3D spheroids, 5 days with compound, read-out: Code: EC50 value in the myc-HMEC assay
Procedure: (§1) 3D Spheroid Experiments—HMEC
(§2) Human mammary epithelial cells (HMEC) were engineered to express either c-myc tagged with EGFP or EGFP alone (non myc) (analogous but distinct from Kessler J D et al, Science. 2012 Jan. 20; 335(6066):348-53. doi: 10.1126/science.1212728; Hsu T Y et al, Nature. 2015 Sep. 17; 525(7569):384-8. doi: 10.1038/nature14985). The engineered cells were seeded at 1000 (myc) or 4000 (non myc) cells/well in a 384 ultra-low attachment plate in a total volume of 40 µL, HMEC cell culture media (DMEM/F12+10% HI-FBS+15 mM HEPES+0.5 ug/ml Hydrocortisone+10 ug/ml Insulin+20 ng/ml EGF). Plates were spun at 1200 rpm for 5 minutes at room temperature to ensure that cells have gathered in the middle of the well and incubated at 37° C. for 48 hrs before firing with compounds. On Day 2 (48 h post seeding) cells were imaged (brightfield and EGFP fluorescence) using the Celigo imaging cytometer prior to firing compounds. For primary screens, compounds were added at three concentrations (1.25, 10 and 30 uM) in a volume of 120 nL using the ECHO acoustic dispenser and spun at 2000 rpm for 2 minutes at room temperature before incubating at 37° C. for 5 days. […] On Day 7, prior to measuring cell viability using CellTiterGlo3D, cells were imaged (brightfield and EGFP fluorescence) on the Celigo imaging cytometer. The CellTiterGlo3D reagent is added at 30uL/well and incubated at room temperature for 30mins After 30mins of incubation, luminescence readings were recorded using the Perkin Elmer EnVision reader.

**Q.** How did the pEC50 turn out when `CCc1ccc(NC(=O)NCc2ccc3c(c2)C(=O)N(C2CCC(=O)NC2=O)C3)cc1` (stereo not drawn) [Compound 18] was run?
**A.** The pEC50 was less than 5.70.

**Q.** How did the pEC50 turn out when `O=C1CCC(N2Cc3ccc(CNC(=O)Nc4cccc(C(F)(F)F)c4)cc3C2=O)C(=O)N1` (stereo not drawn) [Compound 47] was run?
**A.** Its pEC50 is 5.70 to 6.40.

**Q.** With `CC(C)(C)c1ccccc1NC(=O)NCc1ccc2c(c1)C(=O)N(C1CCC(=O)NC1=O)C2` (stereo not drawn) [Compound 11] as the molecule, how does the pEC50 read?
**A.** Its pEC50 is less than 5.70.

**Q.** `COc1ccc(CNC(=O)NCc2ccc3c(c2)C(=O)N(C2CCC(=O)NC2=O)C3)cc1` (stereo not drawn) [Compound 52] was tested. Which pEC50 did it give?
**A.** Its pEC50 is less than 5.70.

**Q.** `Cc1ccc(NC(=O)NCc2ccc3c(c2)C(=O)N(C2CCC(=O)NC2=O)C3)cc1` (stereo not drawn) [Compound 21] was tested. Which pEC50 did it give?
**A.** Its pEC50 is less than 5.70.

same assay, conditions: myc-HMEC 3D spheroids (compounds with code D and E), 5 days, read-out: EC50

**Q.** With `O=C1CCC(N2Cc3ccc(CNC(=O)Nc4cccc(C(F)(F)F)c4)cc3C2=O)C(=O)N1` (stereo not drawn) [Compound 47] as the molecule, how does the pEC50 read?
**A.** The pEC50 was 6.26.

system: Human mammary epithelial cells (HMEC) engineered to express EGFP alone (non myc); assay: 3D spheroid assay, non myc-HMEC (CellTiterGlo3D viability); type: cell-based; conditions: 120 h, 3D spheroids, 5 days with compound, read-out: Code: EC50 value in the non myc-HMEC assay
Procedure: as §1, §2

**Q.** `CCc1ccc(NC(=O)NCc2ccc3c(c2)C(=O)N(C2CCC(=O)NC2=O)C3)cc1` (stereo not drawn) [Compound 18] was tested. Which pEC50 did it give?
**A.** The pEC50 was less than 5.00.

**Q.** With `O=C1CCC(N2Cc3ccc(CNC(=O)Nc4cccc(C(F)(F)F)c4)cc3C2=O)C(=O)N1` (stereo not drawn) [Compound 47] as the molecule, how does the pEC50 read?
**A.** Its pEC50 is less than 5.00.

**Q.** With `CC(C)(C)c1ccccc1NC(=O)NCc1ccc2c(c1)C(=O)N(C1CCC(=O)NC1=O)C2` (stereo not drawn) [Compound 11] as the molecule, how does the pEC50 read?
**A.** The pEC50 was less than 5.00.

**Q.** `COc1ccc(CNC(=O)NCc2ccc3c(c2)C(=O)N(C2CCC(=O)NC2=O)C3)cc1` (stereo not drawn) [Compound 52] was tested. Which pEC50 did it give?
**A.** The pEC50 was less than 5.00.

**Q.** With `Cc1ccc(NC(=O)NCc2ccc3c(c2)C(=O)N(C2CCC(=O)NC2=O)C3)cc1` (stereo not drawn) [Compound 21] as the molecule, how does the pEC50 read?
**A.** Its pEC50 is less than 5.00.

biological target: GSPT1 (Homo sapiens, UniProt P15170+Q96SW2); assay: Immunofluorescence assay for GSPT1 degradation in CAL-51 cells; type: cell-based; parameters: CAL-51 cells were purchased from DSMZ (cat. Number ACC302); endogenous in cells; host or cells: CAL-51 (DSMZ ACC302); conditions: compound treatment 6 hours, read-out: Code: activity for GSPT1 degradation (DC50)
Sequence (P15170 whole entry): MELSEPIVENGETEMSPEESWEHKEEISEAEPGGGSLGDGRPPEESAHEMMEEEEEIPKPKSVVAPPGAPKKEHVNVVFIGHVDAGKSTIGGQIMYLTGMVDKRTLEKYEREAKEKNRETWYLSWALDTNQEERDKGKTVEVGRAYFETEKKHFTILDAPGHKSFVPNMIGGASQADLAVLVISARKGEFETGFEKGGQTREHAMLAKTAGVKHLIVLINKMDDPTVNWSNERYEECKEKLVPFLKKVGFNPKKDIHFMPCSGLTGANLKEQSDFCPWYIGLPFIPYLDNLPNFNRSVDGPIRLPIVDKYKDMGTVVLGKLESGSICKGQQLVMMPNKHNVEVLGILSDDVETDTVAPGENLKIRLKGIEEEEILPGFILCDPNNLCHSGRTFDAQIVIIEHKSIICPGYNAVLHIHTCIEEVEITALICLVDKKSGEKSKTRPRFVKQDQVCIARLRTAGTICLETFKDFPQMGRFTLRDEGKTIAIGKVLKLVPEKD
Sequence (Q96SW2 whole entry): as the sequence (Q96SW2 whole entry) above
Sequence (Q16531 2-1140 partner limits assumed): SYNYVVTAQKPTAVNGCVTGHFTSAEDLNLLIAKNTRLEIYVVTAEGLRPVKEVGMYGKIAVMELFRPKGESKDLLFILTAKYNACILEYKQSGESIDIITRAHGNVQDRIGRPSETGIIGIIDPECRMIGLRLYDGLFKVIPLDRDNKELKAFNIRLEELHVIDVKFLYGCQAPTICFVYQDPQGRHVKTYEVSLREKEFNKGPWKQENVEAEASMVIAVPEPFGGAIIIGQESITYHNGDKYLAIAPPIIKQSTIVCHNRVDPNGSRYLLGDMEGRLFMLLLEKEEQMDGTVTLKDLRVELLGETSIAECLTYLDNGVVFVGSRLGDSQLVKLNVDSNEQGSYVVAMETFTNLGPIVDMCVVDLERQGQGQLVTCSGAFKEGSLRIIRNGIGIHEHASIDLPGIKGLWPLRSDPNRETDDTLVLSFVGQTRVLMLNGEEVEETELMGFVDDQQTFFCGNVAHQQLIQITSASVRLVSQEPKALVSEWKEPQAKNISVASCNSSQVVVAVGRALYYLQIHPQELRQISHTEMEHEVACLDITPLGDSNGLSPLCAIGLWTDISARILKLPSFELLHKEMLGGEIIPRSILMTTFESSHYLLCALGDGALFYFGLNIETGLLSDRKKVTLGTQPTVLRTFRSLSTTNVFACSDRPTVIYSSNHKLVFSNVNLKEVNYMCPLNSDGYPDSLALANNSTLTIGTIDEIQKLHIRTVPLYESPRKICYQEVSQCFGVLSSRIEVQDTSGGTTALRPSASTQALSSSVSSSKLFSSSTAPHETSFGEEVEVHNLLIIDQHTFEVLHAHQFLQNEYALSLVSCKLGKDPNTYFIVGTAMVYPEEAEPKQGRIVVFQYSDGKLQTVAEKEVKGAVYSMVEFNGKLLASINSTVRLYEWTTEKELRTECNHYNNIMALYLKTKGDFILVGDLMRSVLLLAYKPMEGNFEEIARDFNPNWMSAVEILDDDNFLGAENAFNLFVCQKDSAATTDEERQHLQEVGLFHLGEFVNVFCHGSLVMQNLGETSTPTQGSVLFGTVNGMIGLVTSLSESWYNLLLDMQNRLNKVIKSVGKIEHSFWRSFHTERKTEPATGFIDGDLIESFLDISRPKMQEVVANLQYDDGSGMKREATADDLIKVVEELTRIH
Procedure: CAL-51 cells were purchased from DSMZ (cat. Number ACC302), sub-cultured in 90% Dulbecco's MEM (4.5 g/L glucose, Gibco 11965) +10% heat inactivated FBS (BioConcept, 2-01F136I) and incubated at 37° C., 5% CO2. For the assay, imaging microtiterplate Cell Carrier 96 Ultra (Perkin Elmer 6055302) were pre-coated with Fibronectin (Sigma F085, 300 at 0.2 μg/ml) in PBS (1000, Gibco 14190) for 45 min at room temperature, rinsed with PBS and CAL-51 cells (30K cells/well) were plated and let to adhere overnight. Cells were treated with compounds typically using a serial dilution ranging from 30 μM to 0.1 nM for 6 hours. Compounds were stored at 10 mM DMSO stocks. Vehicle (DMSO), positive (CC-885, 10 μM) and rescue controls (positive control plus 0.2 μM bortezomib) were also included at this stage. Cells were subsequently rinsed with PBS and fixed in 10% Formalin solution (50 μl, Sigma HT5011)) for 20 mins at room temperature. Following three consecutive PBS washes (100 μl), cells were permeabilized in 0.1% Triton X-100 in PBS (Sigma 93443, 50 μl) for 15 mins at room temperature. Following three further PBS washes, 50 μl blocking buffer (1% BSA, Sigma A4503, in PBS) was added for 45 min for signal-to-noise reduction. Primary antibody (human GSPT1, Sigma HPA052488) was diluted in blocking buffer (dil. 1/300, 35 μl/well) and incubated with the cells overnight at 4° C. After three PBS washes, Alexa-fluor 488 coupled secondary antibodies (Invitrogen, A32731, dil. 1/1000), Alexa-fluor 647-Phalloïdin (Invitrogen, A22287, dil. 1/200) and DAPI (Thermo, #62248, dil.1/1000) were diluted in blocking buffer and incubated with the samples for 2 hours at room temperature. After three final PBS washes, samples were conserved in 1000 PBS in the dark, until measurement. Image acquisition was performed on the Operetta High-Content Imager (Perkin-Elmer). Fluorescence intensity of Alexa-Fluor 488 (GSPT1), Alexa-Fluor 647 (Actin) and DAPI (Nucleus) were measured. For the determination of GSPT1 DC50 values, a custom algorithm implemented in the PerkinElmer image analysis software Harmony-Acapella® was developed. After user-defined setting of adjustment parameters, the analysis was run identically without human intervention for all image fields. DAPI staining of the nuclei was used to determine the location of cells using standard nuclei detection modules. Segmentation artifacts were removed by threshold-based filters for area, roundness and intensity. The outline of the cells was determined analogously from the sum of the normalized, smoothed DAPI and Actin channel, starting from each nucleus. The Alexa-Fluor 488 (GSPT1) signal intensity in each cell was finally measured, in order to obtain a Mean intensity per cell. GSPT1 degradation (DC50) was calculated after normalization to controls and data import in CDD vault Database, using non-linear regression. Activity for GSPT1 Degradation Table 3 assigns each compound a code indicating the ability for GSPT1 degradation: A, B or C. According to the code, A represents a DC50 value of ≤100 nM, B represents a DC50 value >100 nM and ≤300 nM and C represents a DC50 value of >300 nM.

**Q.** How did the DC50 turn out when `CCc1ccc(NC(=O)NCc2ccc3c(c2)C(=O)N(C2CCC(=O)NC2=O)C3)cc1` (stereo not drawn) [Compound 18] was run?
**A.** Its DC50 is greater than 300 nM.

**Q.** How did the DC50 turn out when `O=C1CCC(N2Cc3ccc(CNC(=O)Nc4cccc(C(F)(F)F)c4)cc3C2=O)C(=O)N1` (stereo not drawn) [Compound 47] was run?
**A.** Its DC50 is no more than 100 nM.

**Q.** For `CC(C)(C)c1ccccc1NC(=O)NCc1ccc2c(c1)C(=O)N(C1CCC(=O)NC1=O)C2` (stereo not drawn) [Compound 11], which DC50 is on record?
**A.** Its DC50 is greater than 300 nM.

**Q.** With `COc1ccc(CNC(=O)NCc2ccc3c(c2)C(=O)N(C2CCC(=O)NC2=O)C3)cc1` (stereo not drawn) [Compound 52] as the molecule, how does the DC50 read?
**A.** Its DC50 is greater than 300 nM.

**Q.** With `Cc1ccc(NC(=O)NCc2ccc3c(c2)C(=O)N(C2CCC(=O)NC2=O)C3)cc1` (stereo not drawn) [Compound 21] as the molecule, how does the DC50 read?
**A.** The DC50 was greater than 300 nM.
